Data: patent US10407429B2, “Pyrazolo[1,5-a]triazin-4-amine derivatives useful in therapy” (Curovir AB, priority 2015, dated 2019)
pIC50: −log10 of the molar value. Like-named read-outs stand apart in the source and are kept apart here.

Legend:
[1] = system: polio virus Sabin 1; test: organism not typed; type: cell-based; conditions: read-out: inhibition capacity (IC50) Polio 1
[2] = system: coxsackie B2 virus; test: Antiviral CPE assay in mammalian cell culture; type: cell-based; conditions: read-out: inhibition capacity (IC50) B2
[3] = system: coxsackie B3 virus; test: Antiviral CPE assay in mammalian cell culture; type: cell-based; conditions: Enterovirus B
[4] = system: coxsackie B 4 virus; test: Antiviral CPE assay in mammalian cell culture; type: cell-based; conditions: Enterovirus B
[5] = system: Enterovirus 71; test: Antiviral CPE assay in mammalian cell culture; type: cell-based; conditions: Enterovirus A, EV71, prevention of viral CPE, read-out: inhibition capacity (IC50) EV71
[6] = system: Enterovirus 68; test: Antiviral CPE assay in mammalian cell culture; type: cell-based; conditions: Enterovirus D
[7] = system: Enterovirus 6; test: Antiviral CPE assay in mammalian cell culture; type: cell-based; conditions: prevention of viral CPE, read-out: inhibition capacity (IC50) EV6
[8] = system: coxsackie B1 virus; test: Antiviral CPE assay in mammalian cell culture; type: cell-based; conditions: read-out: inhibition capacity (IC50) Bl
[9] = system: Enterovirus 30; test: Antiviral CPE assay in mammalian cell culture; type: cell-based; conditions: read-out: inhibition capacity (IC50) EV30
[10] = biological target: PI3Kβ (Homo sapiens, UniProt P42338); test: Phosphatidyl inositol kinase inhibition assay (HTRF); type: biochemical
Description: (§1) Phosphatidyl Inositol Kinase Inhibition Assay
(§2) Inhibition of PI3 kinases was studied using the HTRF (homogeneous time-resolved fluorescence) assay which is a universal method for identifying and characterizing the phosphotransferase activity induced by any ATP/ADP dependent target. The formation of ADP is detected by a specific monoclonal antibody labeled with Eu^3+ cryptate, and directly correlates with the amount of phosphorylated substrate in kinase assays

[11] = biological target: PI3Kα (Homo sapiens, UniProt P42336); test: as above; type: biochemical
Description: as §1, §2

[12] = system: coxsackie B5virus; test: Antiviral CPE assay in mammalian cell culture; type: cell-based; conditions: read-out: inhibition capacity (IC50) B5
[13] = biological target: PI4KIIIβ (Homo sapiens, UniProt Q9UBF8); test: Phosphatidyl inositol kinase inhibition assay (ADP-Glo Kinase Assay); type: biochemical
Procedure: (§3) Phosphatidyl Inositol Kinase Inhibition Assay Inhibition of PI4 kinases was studied using the ADP-Glo™ Kinase Assay which is a luminescent kinase assay that measures ADP formed from a kinase reaction; ADP is converted into ATP, which is converted into light by Ultra-Glo™ Luciferase. The assay is performed in two steps; first, after the kinase reaction, an equal volume of ADP-Glo™ Reagent is added to terminate the kinase reaction and deplete the remaining ATP. In the second step, the Kinase Detection Reagent is added, which simultaneously converts ADP to ATP and allows the newly synthesized ATP to be measured using a coupled luciferase/luciferin reaction. The luminescent signal produced is proportional to the activity of the kinase.

[14] = biological target: PI4KIIIα (Homo sapiens, UniProt P42356); test: as above; type: biochemical
Procedure: as §3

[15] = B3, read-out: inhibition capacity (IC50) B3
[16] = B4, read-out: inhibition capacity (IC50) B4
[17] = EV68, read-out: inhibition capacity (IC50) EV68

Chain of PI3Kα (P42336 whole entry, species assumed): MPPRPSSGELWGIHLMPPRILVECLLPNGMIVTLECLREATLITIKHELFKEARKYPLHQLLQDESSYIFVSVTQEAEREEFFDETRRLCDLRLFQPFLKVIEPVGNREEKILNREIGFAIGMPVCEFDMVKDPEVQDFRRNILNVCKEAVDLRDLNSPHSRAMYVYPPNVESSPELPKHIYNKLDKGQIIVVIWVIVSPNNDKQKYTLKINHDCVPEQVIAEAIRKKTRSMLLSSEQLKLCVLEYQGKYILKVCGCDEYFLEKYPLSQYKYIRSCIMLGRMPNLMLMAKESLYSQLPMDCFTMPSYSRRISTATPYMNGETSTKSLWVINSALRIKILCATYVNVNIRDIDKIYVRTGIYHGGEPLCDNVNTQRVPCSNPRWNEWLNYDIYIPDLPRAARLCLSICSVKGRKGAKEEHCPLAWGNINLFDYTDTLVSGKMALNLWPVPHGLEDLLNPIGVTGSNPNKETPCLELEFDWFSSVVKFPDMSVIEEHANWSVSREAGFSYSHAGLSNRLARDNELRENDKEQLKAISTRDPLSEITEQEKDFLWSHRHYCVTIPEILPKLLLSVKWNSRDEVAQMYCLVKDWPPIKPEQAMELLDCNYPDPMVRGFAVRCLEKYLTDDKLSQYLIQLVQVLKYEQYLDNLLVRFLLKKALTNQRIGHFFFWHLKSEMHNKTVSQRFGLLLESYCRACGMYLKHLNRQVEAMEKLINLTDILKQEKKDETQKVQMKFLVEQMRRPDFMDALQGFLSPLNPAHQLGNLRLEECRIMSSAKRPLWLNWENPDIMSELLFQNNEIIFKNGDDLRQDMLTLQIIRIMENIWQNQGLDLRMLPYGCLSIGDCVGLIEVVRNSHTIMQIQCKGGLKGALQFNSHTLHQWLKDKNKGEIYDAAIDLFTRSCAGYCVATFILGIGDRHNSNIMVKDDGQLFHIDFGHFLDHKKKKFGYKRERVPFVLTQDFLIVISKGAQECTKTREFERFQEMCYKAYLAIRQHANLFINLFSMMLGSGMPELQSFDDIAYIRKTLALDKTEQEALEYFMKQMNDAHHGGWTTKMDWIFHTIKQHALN
Chain of PI3Kα (P27986 whole entry partner, species assumed): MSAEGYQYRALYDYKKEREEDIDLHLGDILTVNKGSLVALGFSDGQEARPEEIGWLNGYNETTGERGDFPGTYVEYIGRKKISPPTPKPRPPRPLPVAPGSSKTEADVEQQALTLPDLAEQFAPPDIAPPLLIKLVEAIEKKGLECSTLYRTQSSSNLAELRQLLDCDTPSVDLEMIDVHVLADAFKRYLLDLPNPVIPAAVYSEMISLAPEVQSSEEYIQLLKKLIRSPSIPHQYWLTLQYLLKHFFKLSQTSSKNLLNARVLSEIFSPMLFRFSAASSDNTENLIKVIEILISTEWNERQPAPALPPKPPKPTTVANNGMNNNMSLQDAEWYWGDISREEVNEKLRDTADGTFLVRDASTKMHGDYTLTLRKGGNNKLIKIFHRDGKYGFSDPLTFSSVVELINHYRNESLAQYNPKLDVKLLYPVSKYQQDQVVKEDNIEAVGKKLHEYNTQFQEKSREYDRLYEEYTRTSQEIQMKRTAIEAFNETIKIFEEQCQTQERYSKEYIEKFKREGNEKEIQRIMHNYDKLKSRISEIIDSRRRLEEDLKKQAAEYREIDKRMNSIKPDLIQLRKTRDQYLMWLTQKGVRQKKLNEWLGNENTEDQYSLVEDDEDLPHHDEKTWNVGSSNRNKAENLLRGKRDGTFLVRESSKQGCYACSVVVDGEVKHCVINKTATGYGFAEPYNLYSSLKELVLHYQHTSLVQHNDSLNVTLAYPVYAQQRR
Chain of PI4KIIIα (P42356 whole entry): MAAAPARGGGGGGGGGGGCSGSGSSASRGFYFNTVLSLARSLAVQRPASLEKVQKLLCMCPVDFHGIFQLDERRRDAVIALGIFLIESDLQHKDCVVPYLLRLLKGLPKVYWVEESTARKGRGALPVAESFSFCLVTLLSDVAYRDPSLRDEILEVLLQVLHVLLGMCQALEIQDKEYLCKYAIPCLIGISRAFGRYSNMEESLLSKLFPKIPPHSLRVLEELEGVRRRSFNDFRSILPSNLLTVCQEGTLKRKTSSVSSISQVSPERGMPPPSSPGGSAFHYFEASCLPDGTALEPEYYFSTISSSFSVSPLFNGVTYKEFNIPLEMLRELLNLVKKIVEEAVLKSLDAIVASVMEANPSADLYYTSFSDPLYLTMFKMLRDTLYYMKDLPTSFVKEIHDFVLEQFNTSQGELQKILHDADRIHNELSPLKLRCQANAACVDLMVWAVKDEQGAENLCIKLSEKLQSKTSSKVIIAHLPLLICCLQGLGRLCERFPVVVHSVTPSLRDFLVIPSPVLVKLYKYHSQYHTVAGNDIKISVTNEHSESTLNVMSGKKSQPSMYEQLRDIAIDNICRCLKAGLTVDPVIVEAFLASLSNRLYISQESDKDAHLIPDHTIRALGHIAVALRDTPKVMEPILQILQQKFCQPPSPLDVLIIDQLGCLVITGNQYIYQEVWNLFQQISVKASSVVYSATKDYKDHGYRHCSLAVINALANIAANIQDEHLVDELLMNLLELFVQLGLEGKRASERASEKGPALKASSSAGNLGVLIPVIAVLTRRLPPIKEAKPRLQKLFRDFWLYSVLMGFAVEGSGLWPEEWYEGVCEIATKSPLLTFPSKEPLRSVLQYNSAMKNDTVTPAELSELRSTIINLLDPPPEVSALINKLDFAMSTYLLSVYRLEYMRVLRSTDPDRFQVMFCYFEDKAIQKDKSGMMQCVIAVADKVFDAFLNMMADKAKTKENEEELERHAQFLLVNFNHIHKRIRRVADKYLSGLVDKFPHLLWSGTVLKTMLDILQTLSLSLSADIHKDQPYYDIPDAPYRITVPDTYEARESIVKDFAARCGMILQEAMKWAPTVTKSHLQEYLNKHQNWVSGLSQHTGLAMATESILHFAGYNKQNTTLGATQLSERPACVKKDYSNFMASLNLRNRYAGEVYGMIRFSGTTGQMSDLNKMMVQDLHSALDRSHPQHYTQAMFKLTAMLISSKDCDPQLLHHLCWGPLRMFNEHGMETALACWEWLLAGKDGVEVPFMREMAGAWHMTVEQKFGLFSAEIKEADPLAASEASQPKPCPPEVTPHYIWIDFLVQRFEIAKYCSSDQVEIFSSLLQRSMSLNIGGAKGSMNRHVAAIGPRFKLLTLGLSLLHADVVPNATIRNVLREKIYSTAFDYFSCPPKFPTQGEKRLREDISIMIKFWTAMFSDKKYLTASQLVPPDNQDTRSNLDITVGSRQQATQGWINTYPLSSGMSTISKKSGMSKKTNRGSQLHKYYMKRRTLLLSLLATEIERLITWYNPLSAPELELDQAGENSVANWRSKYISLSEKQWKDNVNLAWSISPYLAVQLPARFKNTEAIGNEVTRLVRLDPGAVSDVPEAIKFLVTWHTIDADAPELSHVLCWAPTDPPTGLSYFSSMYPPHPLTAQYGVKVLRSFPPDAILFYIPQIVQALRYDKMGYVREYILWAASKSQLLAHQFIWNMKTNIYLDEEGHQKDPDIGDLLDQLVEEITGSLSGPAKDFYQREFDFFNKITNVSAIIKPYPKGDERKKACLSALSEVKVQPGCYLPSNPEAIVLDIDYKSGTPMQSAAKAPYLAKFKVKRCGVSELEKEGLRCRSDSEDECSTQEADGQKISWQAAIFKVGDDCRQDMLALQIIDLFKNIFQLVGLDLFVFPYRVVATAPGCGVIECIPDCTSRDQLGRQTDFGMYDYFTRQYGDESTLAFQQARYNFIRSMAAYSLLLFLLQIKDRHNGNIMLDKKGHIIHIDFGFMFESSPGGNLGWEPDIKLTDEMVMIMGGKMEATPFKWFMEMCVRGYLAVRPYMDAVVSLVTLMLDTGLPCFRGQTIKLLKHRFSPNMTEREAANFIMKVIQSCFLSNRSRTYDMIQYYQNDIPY
Chain of PI4KIIIβ (Q9UBF8 whole entry): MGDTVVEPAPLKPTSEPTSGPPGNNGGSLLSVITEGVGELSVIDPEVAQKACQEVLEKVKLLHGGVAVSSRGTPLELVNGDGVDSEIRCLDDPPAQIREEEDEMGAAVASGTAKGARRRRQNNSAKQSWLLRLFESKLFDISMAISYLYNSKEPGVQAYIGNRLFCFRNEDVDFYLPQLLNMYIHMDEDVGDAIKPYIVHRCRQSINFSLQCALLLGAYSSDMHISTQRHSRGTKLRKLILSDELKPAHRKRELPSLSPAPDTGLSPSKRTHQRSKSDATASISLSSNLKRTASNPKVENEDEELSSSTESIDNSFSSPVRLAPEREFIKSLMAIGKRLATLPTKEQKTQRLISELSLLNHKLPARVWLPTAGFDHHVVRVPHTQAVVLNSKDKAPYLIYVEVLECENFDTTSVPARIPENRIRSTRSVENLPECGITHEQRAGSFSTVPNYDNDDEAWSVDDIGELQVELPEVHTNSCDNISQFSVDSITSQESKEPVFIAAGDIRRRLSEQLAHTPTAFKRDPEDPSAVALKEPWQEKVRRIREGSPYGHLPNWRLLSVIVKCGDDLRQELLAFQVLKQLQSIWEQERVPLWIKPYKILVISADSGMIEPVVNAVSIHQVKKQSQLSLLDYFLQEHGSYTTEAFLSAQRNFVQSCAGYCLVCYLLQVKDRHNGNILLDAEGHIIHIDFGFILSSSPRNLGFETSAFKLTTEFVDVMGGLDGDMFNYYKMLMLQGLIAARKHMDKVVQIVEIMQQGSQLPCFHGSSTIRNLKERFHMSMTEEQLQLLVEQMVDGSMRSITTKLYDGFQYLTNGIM

Row | Structure (SMILES) | pIC50 [1] | pIC50 [2] | pIC50 [3, 15] | pIC50 [4, 16] | pIC50 [5] | pIC50 [6, 17] | pIC50 [7] | pIC50 [8] | pIC50 ([9]; Enterovirus) | pIC50 [12] | also measured
1 | COc1ccc(-c2c(C)nn3c(NCc4ccncc4)nc(C)nc23)cc1OC [Example 6, 8-(3,4-dimethoxyphenyl)-2,7-dimethyl-N-(4-pyridylmethyl)pyrazolo[1,5-a][1,3,5]triazin-4-amine] | > 8.00 | > 8.00 | > 8.00 | > 8.00 | > 8.00 | > 8.00 | > 8.00 | > 8.00 | > 7.00 | > 8.00 | pIC50 [10]: < 5.00; pIC50 [11]: 5.14; pIC50 [13]: 8.89; pIC50 [14]: 5.49
2 | COc1ccc(-c2c(C)nn3c(NCc4ccc(S(N)(=O)=O)cc4)nc(C)nc23)cc1OC [Example 14, 4-[[[8-(3,4-dimethoxyphenyl)-2,7-dimethyl-pyrazolo[1,5-a][1,3,5]triazin-4-yl]amino]methyl]benzenesulfonamide] | > 8.00 | > 7.00 | > 7.00 | > 7.00 | > 8.00 | > 8.00 |  | > 7.00 | > 8.00 | > 8.00 | pIC50 [10]: < 5.00; pIC50 [11]: < 5.00; pIC50 [13]: 8.68; pIC50 [14]: 5.89
3 | COc1ccc(-c2c(C)nn3c(NCc4cccnc4)nc(C)nc23)cc1OC [Example 22, 8-(3,4-dimethoxyphenyl)-2,7-dimethyl-N-(3-pyridylmethyl)pyrazolo[1,5-a][1,3,5]triazin-4-amine] | > 7.00 | > 7.00 | > 7.00 | > 7.00 | > 7.00 | > 7.00 | > 7.00 | > 7.00 | > 7.00 | > 7.00 | 
4 | COc1ccc(-c2c(C)nn3c(NCc4ccc(C)o4)nc(C)nc23)cc1OC [Example 23, 8-(3,4-dimethoxyphenyl)-2,7-dimethyl-N-[(5-methyl-2-furyl)methyl]pyrazolo[1,5-a][1,3,5]triazin-4-amine] | > 8.00 | > 7.00 | > 7.00 | > 8.00 | > 7.00 | > 7.00 | > 7.00 | > 8.00 | > 7.00 | > 7.00 | 
5 | COC(=O)NS(=O)(=O)c1ccc(CNc2nc(C)nc3c(-c4ccc(OC)c(OC)c4)c(C)nn23)cc1 [Example 24, methyl N-[4-[[[8-(3,4-dimethoxyphenyl)-2,7-dimethyl-pyrazolo[1,5-a][1,3,5]triazin-4-yl]amino]methyl]phenyl]sulfonylcarbamate] | > 6.00 | > 6.00 | < 6.00 | > 6.00 | > 6.00 | > 6.00 | < 6.00 | < 6.00 | < 6.00 | < 6.00 | 
6 | CCC(=O)NS(=O)(=O)c1ccc(CNc2nc(C)nc3c(-c4ccc(OC)c(OC)c4)c(C)nn23)cc1 [Example 25, N-[4-[[[8-(3,4-dimethoxyphenyl)-2,7-dimethyl-pyrazolo[1,5-a][1,3,5]triazin-4-yl]amino]methyl]phenyl]sulfonylpropanamide] | < 6.00 | < 6.00 | < 6.00 | < 6.00 | < 6.00 | > 6.00 | < 6.00 | < 6.00 | < 6.00 | < 6.00 | 
7 | CNS(=O)(=O)c1ccc(CNc2nc(C)nc3c(-c4ccc(OC)c(OC)c4)c(C)nn23)cc1 [Example 26, N-methyl-4-[[[8-(3,4-dimethoxyphenyl)-2,7-dimethyl-pyrazolo[1,5-a][1,3,5]triazin-4-yl]amino]methyl]benzenesulfonamide] | > 7.00 | > 7.00 | > 6.00 | > 7.00 | > 6.00 | < 6.00 | > 6.00 | > 6.00 | > 6.00 | > 6.00 | 
8 | COc1ccc(-c2c(C)nn3c(NCc4ccn(C)n4)nc(C)nc23)cc1OC [Example 27, 8-(3,4-dimethoxyphenyl)-2,7-dimethyl-N-[(1-methyl-1H-pyrazol-3-yl)methyl]pyrazolo[1,5-a][1,3,5]triazin-4-amine] | > 8.00 | > 8.00 | > 7.00 | > 8.00 | > 7.00 | > 8.00 | > 6.00 | > 8.00 | > 7.00 | > 7.00 | 
9 | COc1ccc(-c2c(C)nn3c(NCc4cnco4)nc(C)nc23)cc1OC [Example 28, 8-(3,4-dimethoxyphenyl)-2,7-dimethyl-N-[(1,3-oxazol-5-yl)methyl]pyrazolo[1,5-a][1,3,5]triazin-4-amine] | > 7.00 | > 7.00 | > 7.00 | > 7.00 | > 7.00 | > 8.00 | > 7.00 | > 7.00 | < 6.00 | > 6.00 | 
10 | COc1ccc(-c2c(C)nn3c(NCC4CCNCC4)nc(C)nc23)cc1OC [Example 29, 8-(3,4-dimethoxyphenyl)-2,7-dimethyl-N-[(piperidin-4-yl)methyl]pyrazolo[1,5-a][1,3,5]triazin-4-amine] | < 6.00 | < 6.00 | < 6.00 | < 6.00 | < 6.00 | < 6.00 | < 6.00 | < 6.00 | < 6.00 | < 6.00 | 
11 | COc1ccc(-c2c(C)nn3c(NCc4cnc(C)nc4)nc(C)nc23)cc1OC [Example 30, 8-(3,4-dimethoxyphenyl)-2,7-dimethyl-N-[(2-methylpyrimidin-5-yl)methyl]pyrazolo[1,5-a][1,3,5]triazin-4-amine] | > 7.00 | > 6.00 | > 6.00 | > 7.00 | > 7.00 | > 7.00 | > 6.00 | > 6.00 | > 7.00 | > 6.00 | 
12 | COc1ccc(-c2c(C)nn3c(NCc4ccnnc4)nc(C)nc23)cc1OC [Example 31, 8-(3,4-dimethoxyphenyl)-2,7-dimethyl-N-[(pyridazin-4-yl)methyl]pyrazolo[1,5-a][1,3,5]triazin-4-amine] | > 6.00 | > 6.00 | > 6.00 | > 8.00 | > 7.00 | > 7.00 | > 6.00 | > 6.00 | < 6.00 | > 6.00 | 
13 | COc1ccc(-c2c(C)nn3c(NCc4ccc(C)nc4)nc(C)nc23)cc1OC [Example 32, 8-(3,4-dimethoxyphenyl)-2,7-dimethyl-N-[(6-methylpyridin-3-yl)methyl]pyrazolo[1,5-a][1,3,5]triazin-4-amine] | > 7.00 |  |  |  | > 7.00 |  | > 7.00 |  |  |  | pIC50 ([2]; prevention of viral CPE, mammalian cell culture, coxsackie B2 virus): > 7.00; pIC50 ([3]; prevention of viral CPE, mammalian cell culture, coxsackie B3 virus, read-out: inhibition capacity (IC50) B3): > 8.00; pIC50 ([4]; prevention of viral CPE, mammalian cell culture, coxsackie B4 virus, read-out: inhibition capacity (IC50) B4): > 7.00; pIC50 ([6]; EV68, prevention of viral CPE, mammalian cell culture, Enterovirus 68, read-out: inhibition capacity (IC50) EV68): > 7.00; pIC50 ([8]; prevention of viral CPE, mammalian cell culture, coxsackie B1 virus): > 7.00; pIC50 ([9]; prevention of viral CPE, mammalian cell culture, Enterovirus 30): > 8.00; pIC50 ([12]; prevention of viral CPE, mammalian cell culture, coxsackie B5 virus): > 7.00
